Experimental data reported in US5162201A, “Analytical method making use of monoglyceride lipase” (priority 1987, dated 1992).

How the values were obtained:
[1] = system: monoglyceride lipase of this invention; experiment: Substrate specificity of the monoglyceride lipase; assay type: biochemical, Bacillus stearothermophilus H-165; conditions: named substance used as substrate
Method: (8) Substrate specificity: The substrate specificity of the monoglyceride lipase of this invention was investigated under conditions which followed the below-described measurement method of enzymatic activity for the monoglyceride lipase of this invention.
(§1) To 0.4 ml of a reaction solution of the above composition, 50 μl of 10 mM monolaurin (0.5% aqueous solution of "Triton X-100") was added. The resultant mixture was provisionally heated at 37° C. for 2-3 minutes and 50 μl of an enzyme solution was added to initiate a reaction. Exactly 10 minutes later, 2.5 ml of 0.5% SDS (sodium dodecyl suflate) was added to terminate the reaction. The absorbance was measured at a wavelength of 550 nm. Regarding the enzymatic activity, the activity capable of producing 1 μmole of glycerol per minute was defined as 1 Unit (1 U). The following equation will be followed upon calculation of enzymatic activity (potency) by this measurement method of enzymatic activity. [formula] ΔA 550: Absorbance at the wavelength of 500 nm 2.95: Total volume of reaction mixture (ml)

[2] = system: monoglyceride lipase of this invention; experiment: Effects of surface active agents and metal ions on the monoglyceride lipase; assay type: biochemical, Bacillus stearothermophilus H-165; conditions: for Activity of lipase (%): not added = 100, 10 min
Method: as §1, with “activity.” for “activity. [formula] ΔA 550: Absorbance at the wavelength of 500 nm 2.95: Total volume of reaction mixture (ml)”

[3] = system: monoglyceride lipase of this invention; experiment: Glycerol liberated from α,β-diglycerides by pancreatic lipase plus monoglyceride lipase; assay type: biochemical, Bacillus stearothermophilus H-165; conditions: for glycerol liberated from the α,β-diglyceride substrate: α-position hydrolyzed by pancreatic lipase, then monoglyceride lipase of this invention on the β-monoglyceride formed
Method: 2) Substrate specificity of the monoglyceride lipase upon use of α,β-diglyceride as a substrate:
i) The below-described α,β-diglycerides were separately employed as substrates. Their α-positions were hydrolyzed by using pancreatic lipase and the monoglyceride lipase of this invention was caused to act on β-monoglycerides thus formed. Thereafter, glycerol thus liberated was analyzed.

[4] = Confirmation by HPLC of fatty acid liberated from α-linoleoyl-β-oleoyl-diglyceride; assay type: biochemical; conditions: 37° C., 10 minutes, pH 8.3; monoglyceride lipase (0.5 U) added to the pancreatic lipase reaction solution
Method: 1) Confirmation of a fatty acid liberated from α-linoleoyl-β-oleoyl-diglyceride as a substrate, by high performance liquid chromatography (HPLC): i) Pancreas-derived lipase (50 μl) was added to 1.0 ml of a reaction solution having a composition of 0.5 mg of α-linoleoyl-β-oleoyl-diglyceride, 1.8 mg of a non-ionic surface active agent ("Triton X-100", trade name; product of Sigma Chemical Company), 3.8 mg of deoxycholic acid, 20 U of colipase, 0.15 mg of calcium chloride, and 200 μl of 0.1 M N-tri(hydroxymethyl) methyl-3-aminopropanesulfonic acid (TAPS)-NaOH (pH 8.3). After allowing them to react at 37° C. for 10 minutes, the reaction was terminated. A 15 μl aliquot of the reaction mixture was applied on a column and was then analyzed by high performance liquid chromatography under the following conditions.
Column: "Zorbox ODS" (trade name; 4.6 mm.phi.×25 cm)
Solvent: acetonitrile:H2 O (96:4)
Detection: ultraviolet absorption at 205 nm […]
ii) The monoglyceride lipase (0.5 U) was added to a reaction solution of the same composition as that employed above. A fatty acid liberated in substantially the same manner was detected by high performance liquid chromatography. As a result, linoleic acid and oleic acid were confirmed at the retention times of 23 minutes and 31 minutes respectively.

CCCCC/C=C\C/C=C\CCCCCCCC(=O)OCC(CO)OC(=O)CCCCCCC/C=C\C/C=C\CCCCC (stereo not shown) [1,2-dilinolein]
glycerol hydrolyzed from the substrate in the presence of the monoglyceride lipase [1]: not detected

CCCCC/C=C\C/C=C\CCCCCCCC(=O)OCC(O)COC(=O)CCCCCCC/C=C\C/C=C\CCCCC [1,3-dilinolein]
glycerol hydrolyzed from the substrate in the presence of the monoglyceride lipase [1]: not detected

[Ca+2].[Cl-].[Cl-] [CaCl2]
effect of addition on the activity of the monoglyceride lipase (in words) [2]: not affected

C[C@H](CCC(=O)O)[C@H]1CC[C@H]2[C@@H]3[C@H](O)C[C@@H]4C[C@H](O)CC[C@]4(C)[C@H]3C[C@H](O)[C@]12C [Cholic acid]
effect of addition on the activity of the monoglyceride lipase (in words) [2]: inhibition of the activity is observed in a high concentration range

[Cl-].[Cl-].[Mg+2] [MgCl2]
effect of addition on the activity of the monoglyceride lipase (in words) [2]: not affected

CCCCCCCCCCCC(=O)OCC(O)CO (stereo not shown) [Monolaurin]
activity against the substrate (in words) [1]: maximum activity

CCCCCCCC/C=C\CCCCCCCC(=O)OC(CO)CO [Monoolein (β-monoglyceride), Monoolein]
Activity of lipase (%) ([1]; Monolaurin = 100.0): 75.6%

CCCCCCCC/C=C\CCCCCCCC(=O)OCC(COC(=O)CCCCCCC/C=C\CCCCCCCC)OC(=O)CCCCCCC/C=C\CCCCCCCC [Triolein]
glycerol hydrolyzed from the substrate in the presence of the monoglyceride lipase [1]: not detected

CCCCC/C=C\C/C=C\CCCCCCCC(=O)OCC(CO)OC(=O)CCCCCCC/C=C\C/C=C\CCCCC (stereo not drawn) [α,β-dilinoleylglyceride]
glycerol liberated from the α,β-diglyceride substrate [3]: glycerol was detected

CCCCCCCC/C=C\CCCCCCCC(=O)OCC(CO)OC(=O)CCCCCCCCCCCCCCC (stereo not drawn) [α-oleyl-β-palmitoyldiglyceride]
glycerol liberated from the α,β-diglyceride substrate [3]: glycerol was detected

CCCCCCCC/C=C\CCCCCCCC(=O)OC(CO)COC(=O)CCCCCCCCCCCCCCC (stereo not drawn) [α-palmitoyl-β-oleoyldiglyceride]
glycerol liberated from the α,β-diglyceride substrate [3]: glycerol was detected

Triton X-100
effect of addition on the activity of the monoglyceride lipase (in words) [2]: inhibition of the activity is observed in a high concentration range | Activity of lipase (%) ([2]; reagent concentration 0.1%): 81.7% | Activity of lipase (%) ([2]; reagent concentration 0.5%): 46.5%

B1: pancreatic lipase: pancreas-derived lipase that hydrolyzes the α-position of α,β-diglyceride (protein, UniProt P00591 1-450, looked up)
Pancreatic triacylglycerol …: SEVCFPRLGCFSDDAPWAGIVQRPLKILPWSPKDVDTRFLLYTNQNQNNYQELVADPSTITNSNFRMDRKTRFIIHGFIDKGEEDWLSNICKNLFKVESVNCICVDWKGGSRTGYTQASQNIRIVGAEVAYFVEVLKSSLGYSPSNVHVIGHSLGSHAAGEAGRRTNGTIERITGLDPAEPCFQGTPELVRLDPSDAKFVDVIHTDAAPIIPNLGFGMSQTVGHLDFFPNGGKQMPGCQKNILSQIVDIDGIWEGTRDFVACNHLRSYKYYADSILNPDGFAGFPCDSYNVFTANKCFPCPSEGCPQMGHYADRFPGKTNGVSQVFYLNTGDASNFARWRYKVSVTLSGKKVTGHILVSLFGNEGNSRQYEIYKGTLQPDNTHSDEFDSDVEVGDLQKVKFIWYNNNVINPTLPRVGASKITVERNDGKVYDFCSQETVREEVLLTLNPC
position of α,β-diglyceride / monoglyceride acted on, from the fatty acid liberated [4]: act on the α-position of α,β-diglyceride | glycerol liberated from the α,β-diglyceride substrates ([3]; pancreatic lipase used singly): glycerol was not detected
